Target: T1, IRAK-4 (Homo sapiens, UniProt Q9NWZ3)
T1 sequence (Q9NWZ3 1-460): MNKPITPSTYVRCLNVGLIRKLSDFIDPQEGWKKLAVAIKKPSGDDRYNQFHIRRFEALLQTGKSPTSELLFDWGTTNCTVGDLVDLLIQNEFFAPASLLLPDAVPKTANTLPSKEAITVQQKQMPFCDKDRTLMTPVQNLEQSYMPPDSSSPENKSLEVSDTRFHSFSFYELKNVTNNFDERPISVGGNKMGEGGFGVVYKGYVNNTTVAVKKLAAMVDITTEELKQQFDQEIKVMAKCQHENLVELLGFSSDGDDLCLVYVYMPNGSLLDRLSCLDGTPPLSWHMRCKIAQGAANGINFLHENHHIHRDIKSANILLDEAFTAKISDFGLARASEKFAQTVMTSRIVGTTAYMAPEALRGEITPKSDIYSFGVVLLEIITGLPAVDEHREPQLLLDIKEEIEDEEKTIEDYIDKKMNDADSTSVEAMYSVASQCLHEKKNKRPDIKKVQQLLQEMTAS
Test: IRAK-4 ELISA, PBMC degradation
Assay type: cell-based
Design: endogenous in cells; host or cells: PBMC
Details: treated overnight
Protocol: Reagents: Human IRAK-4 Matched Antibody Pair Kit (Abcam ab218182) and ELISA Accessory Pack (Abcam ab210905).
Cell Treatment and Lysis:
1. OCI-Ly10: 200,000 cells are seeded at 1×10^6/ml in 96-well U-bottom plates 200 ul per well, treated with compound the same day. Incubate overnight. 2. PBMC: 800,000 cells are seeded at 2×10^6/ml in 96-well U-bottom deep-well plates, 400 ul per well, treated with compound the same day. Incubate overnight.
Cell lysate is collected and analyzed by ELISA for IRAK-4 levels.

SMILES | DC50 [nM] | Dmax [%] | PBMC DC90 | PBMC Dmax
CC(C)Oc1cc2c(cc1NC(=O)c1cnn3cccnc13)CN(C1CCN(CCOCCOc3ccc4c(c3)CN(C3CCC(=O)NC3=O)C4=O)CC1)C2=O (stereo not drawn) [Example 2] | < 1 | ≥ 90 | 2 nM | 
CC(C)Oc1cc2c(cc1NC(=O)c1cnn3cccnc13)CN(C1CCN(CCOc3ccc4c(c3)CN(C3CCC(=O)NC3=O)C4=O)CC1)C2=O (stereo not drawn) [Example 3] | ≥ 10 | 80 to 90 | 3 nM | 
COc1cc(CCN2CCC(N3Cc4cc(NC(=O)c5cnn6cccnc56)c(OC(C)C)cc4C3=O)CC2)cc2c1C(=O)N(C1CCC(=O)NC1=O)C2 (stereo not drawn) [Example 11] | 1 to 5 | ≥ 90 | C (C represents a DC90 value ≥25.0 nM and <50 nM) | 
COc1cc(N2CC(CN3CCC(N4Cc5cc(NC(=O)c6cnn7cccnc67)c(OC(C)C)cc5C4=O)CC3)C2)cc2c1C(=O)N(C1CCC(=O)NC1=O)C2=O (stereo not drawn) [Example 14] | < 1 | ≥ 90 | A (A represents a DC90 value <10.0 nM) | 
CC(C)Oc1cc2c(cc1NC(=O)c1cnn3cccnc13)CN(C1CCN(CCC3(F)CN(c4ccc5c(c4)C(=O)N(C4CCC(=O)NC4=O)C5=O)C3)CC1)C2=O (stereo not drawn) [Example 15] | < 1 | 80 to 90 | A (A represents a DC90 value <10.0 nM) | 
CC(C)Oc1cc2c(cc1NC(=O)c1cnn3cccnc13)CN(C[C@@H](F)C1CCN(CC3CN(c4ccc5c(c4)CN(C4CCC(=O)NC4=O)C5=O)C3)CC1)C2=O (stereo partly drawn) [Example 16] | < 1 | ≥ 90 | A (A represents a DC90 value <10.0 nM) | 
CC(C)Oc1cc2c(cc1NC(=O)c1cnn3cccnc13)CN(C[C@@H](F)C1CN(CC3CCN(c4ccc5c(c4)CN(C4CCC(=O)NC4=O)C5=O)CC3)C1)C2=O (stereo partly drawn) [Example 17] | < 1 | 80 to 90 | A (A represents a DC90 value <10.0 nM) | 
CC(C)Oc1cc2c(cc1NC(=O)c1cnn3cccnc13)CN(C[C@@H](F)C1CCN(CC3CCN(c4ccc5c(c4)C(=O)N(C4CCC(=O)NC4=O)C5=O)CC3)CC1)C2=O (stereo partly drawn) [Example 18] | < 1 | ≥ 90 | A (A represents a DC90 value <10.0 nM) | 
CC(C)Oc1cc2c(cc1NC(=O)c1cnn3cccnc13)CN(C[C@@H](F)C1CCN(CC3CCN(c4ccc5c(c4)CN(C4CCC(=O)NC4=O)C5=O)CC3)CC1)C2=O (stereo partly drawn) [Example 20] | < 1 | ≥ 90 | A (A represents a DC90 value <10.0 nM) | 
COc1cc(N2CC(CN3CCC(N4Cc5cc(NC(=O)c6cnn7cccnc67)c(OC(C)C)cc5C4=O)CC3)C2)cc2c1C(=O)N(C1CCC(=O)NC1=O)C2 (stereo not drawn) [Example 21] | < 1 | ≥ 90 | A (A represents a DC90 value <10.0 nM) | 
CC(C)Oc1cc2c(cc1NC(=O)c1cnn3cccnc13)CN(C1CCC(N3CCC(c4ccc5c(c4)C(=O)N(C4CCC(=O)NC4=O)C5=O)CC3)CC1)C2=O (stereo not drawn) [Example 25] | 1 to 5 | ≥ 90 | A (A represents a DC90 value <10.0 nM) | 
O=C1CCC(N2C(=O)c3ccc(N4CCC(CN5CCC(N6Cc7cc(NC(=O)c8cnn9cccnc89)c(OC8CC8)cc7C6=O)CC5)CC4)cc3C2=O)C(=O)N1 (stereo not drawn) [Example 27] | < 1 | ≥ 90 | A (A represents a DC90 value <10.0 nM) | 
O=C1CCC(N2Cc3cc(N4CCC(CN5CCC(N6Cc7cc(NC(=O)c8cnn9cccnc89)c(OC8CC8)cc7C6=O)CC5)CC4)ccc3C2=O)C(=O)N1 (stereo not drawn) [Example 28] | < 1 | ≥ 90 | A (A represents a DC90 value <10.0 nM) | 
O=C1CCC(N2Cc3cc(N4CC(N5CCC(N6Cc7cc(NC(=O)c8cnn9cccnc89)c(N8CCC(N9CCC9)CC8)cc7C6=O)CC5)C4)ccc3C2=O)C(=O)N1 (stereo not drawn) [Example 39] | 5 to 10 | ≥ 90 | C (C represents a DC90 value ≥25.0 nM and <50 nM) | 
CC(C)Oc1cc2c(cc1NC(=O)c1cnn3cccnc13)CN(C1CCN(CC(F)(F)C3CN(c4ccc5c(c4)C(=O)N(C4CCC(=O)NC4=O)C5=O)C3)CC1)C2=O (stereo not drawn) [Example 40] | 5 to 10 | 80 to 90 | D (D represents a DC90 value ≥50 nM) | 
CC(C)Oc1cc2c(cc1NC(=O)c1cnn3cccnc13)CN(C1CCN(CC3(O)CN(c4ccc5c(c4)C(=O)N(C4CCC(=O)NC4=O)C5=O)C3)CC1)C2=O (stereo not drawn) [Example 61] | < 1 | ≥ 90 | A (A represents a DC90 value <10.0 nM) | 

SMILES | DC50 [nM] | Dmax [%] | PBMC DC90 | PBMC Dmax
CC(C)Oc1cc2c(cc1NC(=O)c1cnn3cccnc13)CN([C@H]1CC[C@H](OC3CCN(c4ccc5c(c4)C(=O)N(C4CCC(=O)NC4=O)C5=O)CC3)CC1)C2=O (stereo partly drawn) [Example 65] | 1 to 5 | ≥ 90 | A (A represents a DC90 value <10.0 nM) | 
CC(C)Oc1cc2c(cc1NC(=O)c1cnn3cccnc13)CN([C@H]1CC[C@H](N3CC4(CN(c5ccc6c(c5)C(=O)N(C5CCC(=O)NC5=O)C6=O)C4)C3)CC1)C2=O (stereo partly drawn) [Example 68] | < 1 |  | A (A represents a DC90 value <10.0 nM) | A (A represents a Dmax value ≥90)
CC(C)Oc1cc2c(cc1NC(=O)c1cnn3cccnc13)CN(C[C@@H](F)C1CCN(CC3CN(c4ccc5c(c4)C(=O)N(C4CCC(=O)NC4=O)C5=O)C3)CC1)C2=O (stereo partly drawn) [Example 70] | < 1 | ≥ 90 | A (A represents a DC90 value <10.0 nM) | 
CC(C)Oc1cc2c(cc1NC(=O)c1cnn3cccnc13)CN(C1CCN(C(=O)C3CN(c4ccc5c(c4)C(=O)N(C4CCC(=O)NC4=O)C5=O)C3)CC1)C2=O (stereo not drawn) [Example 71] | 1 to 5 | ≥ 90 | B (B represents a DC90 value ≥10.0 nM and <25.0 nM) | 
CC(C)Oc1cc2c(cc1NC(=O)c1cnn3cccnc13)CN(C1CCN(CC3(C)CN(c4ccc5c(c4)C(=O)N(C4CCC(=O)NC4=O)C5=O)C3)CC1)C2=O (stereo not drawn) [Example 72] | < 1 | 80 to 90 | A (A represents a DC90 value <10.0 nM) | 
CC(C)Oc1cc2c(cc1NC(=O)c1cnn3ccc(N4CCOCC4)nc13)CN(C1CCN(CC3CN(c4ccc5c(c4)C(=O)N(C4CCC(=O)NC4=O)C5=O)C3)CC1)C2=O (stereo not drawn) [Example 73] | 5 to 10 | 70 to 80 | D (D represents a DC90 value ≥50 nM) | 
CC(C)Oc1cc2c(cc1NC(=O)c1cnn3ccc(N4CCOCC4)nc13)CN(C1CCN(CC3CCN(c4ccc5c(c4)C(=O)N(C4CCC(=O)NC4=O)C5=O)CC3)CC1)C2=O (stereo not drawn) [Example 74] | 5 to 10 | 80 to 90 | D (D represents a DC90 value ≥50 nM) | 
CC(C)Oc1cc2c(cc1NC(=O)c1cnn3cccnc13)CN(C1CCN(CCN(C)c3ccc4c(c3)C(=O)N(C3CCC(=O)NC3=O)C4=O)CC1)C2=O (stereo not drawn) [Example 75] | 1 to 5 | ≥ 90 | B (B represents a DC90 value ≥10.0 nM and <25.0 nM) | 
CC(C)Oc1cc2c(cc1NC(=O)c1cnn3cccnc13)CN(C1CCN(C[C@H]3CCCN(c4ccc5c(c4)C(=O)N(C4CCC(=O)NC4=O)C5=O)C3)CC1)C2=O (stereo partly drawn) [Example 76] | 1 to 5 | ≥ 90 | B (B represents a DC90 value ≥10.0 nM and <25.0 nM) | 
CC(C)Oc1cc2c(cc1NC(=O)c1cnn3cccnc13)CN(C1CCN(C[C@@H]3CCCN(c4ccc5c(c4)C(=O)N(C4CCC(=O)NC4=O)C5=O)C3)CC1)C2=O (stereo partly drawn) [Example 77] | 1 to 5 | ≥ 90 | B (B represents a DC90 value ≥10.0 nM and <25.0 nM) | 
CC(C)Oc1cc2c(cc1NC(=O)c1cnn3cccnc13)CN(C1CCN(C[C@@H]3CN(c4ccc5c(c4)C(=O)N(C4CCC(=O)NC4=O)C5=O)CCO3)CC1)C2=O (stereo partly drawn) [Example 78] | < 1 | ≥ 90 | A (A represents a DC90 value <10.0 nM) | 
CC(C)Oc1cc2c(cc1NC(=O)c1cnn3cccnc13)CN(C1CCN(C[C@H]3CN(c4ccc5c(c4)C(=O)N(C4CCC(=O)NC4=O)C5=O)CCO3)CC1)C2=O (stereo partly drawn) [Example 79] | < 1 | ≥ 90 | A (A represents a DC90 value <10.0 nM) | 
CC(C)Oc1cc2c(cc1NC(=O)c1cnn3cccnc13)CN(C1CCN(C[C@@H]3CCN(c4ccc5c(c4)C(=O)N(C4CCC(=O)NC4=O)C5=O)C3)CC1)C2=O (stereo partly drawn) [Example 80] | 1 to 5 | ≥ 90 | A (A represents a DC90 value <10.0 nM) | 
CC(C)Oc1cc2c(cc1NC(=O)c1cnn3cccnc13)CN(C1CCN(CC3CCC4(CC3)CN(c3ccc5c(c3)C(=O)N(C3CCC(=O)NC3=O)C5=O)C4)CC1)C2=O (stereo not drawn) [Example 81] | < 1 | ≥ 90 | A (A represents a DC90 value <10.0 nM) | 
CC(C)Oc1cc2c(cc1NC(=O)c1cnn3cccnc13)CN(C1CCN(C[C@H]3CCN(c4ccc5c(c4)C(=O)N(C4CCC(=O)NC4=O)C5=O)C3)CC1)C2=O (stereo partly drawn) [Example 83] | 1 to 5 | ≥ 90 | A (A represents a DC90 value <10.0 nM) | 
O=C1CCC(N2C(=O)c3ccc(N4CC(CN5CCC(N6Cc7cc(NC(=O)c8cnn9cccnc89)c(OC8CC8)cc7C6=O)CC5)C4)cc3C2=O)C(=O)N1 (stereo not drawn) [Example 84] | < 1 | ≥ 90 | A (A represents a DC90 value <10.0 nM) | 

From patent US20230099344A1, “COMPOUNDS AND METHODS FOR THE TARGETED DEGRADATION OF IRAK-4” (Arvinas Operations, Inc., priority 2021, published 2023)
